# Assays:
# Type in all cases: in vivo, human
# adult subjects with TRD [1] = assay: Phase 2b trial in TRD: Positive and Negative Affect Schedule (PANAS); settings: 25 mg vs 1 mg group, week 3
# Procedure: (§1) Other objectives were to evaluate the effects of psilocybin on quality of life and wellbeing, functioning and associated disability, cognitive function, and anxiety compared to 1 mg psilocybin on: • (a) Quality of life in subject EuroQoL (EQ)-5 dimension-3 level scale (EQ-5D-3L) score change from Baseline to week 3. This will also be assessed at week 12. This assessment was not mandatory. • (b) Quality of life in caregiver EQ-5D-3L score change from Baseline to week 3. This was assessed at week 12. • (c) Functioning and associated disability in the Sheehan Disability Scale (SDS) score change from Baseline to week 3. This was also assessed at week 12. • (d) Cognitive function as measured by the Digit Symbol Substitution Test (DSST) score change from baseline to week 3. This was assessed at day 1 and week 12. • (e) Level of anxiety as measured using the change in Generalised Anxiety Disorder 7 item Scale (GAD-7) total score change from baseline to week 3. This was assessed at week 12. • (f) Subject determined level of depression as measured using the change in Quick Inventory of Depressive Symptomatology Self-Rated (QIDS-SR-16) total score from Baseline to week 3. […] This was assessed at week 12. • (h) To evaluate the impact of different psilocybin doses on real life functional activity estimated from passive data streams collected on a mobile app on subjects' mobile phones. […]
# adult subjects with TRD [2] = assay: Phase 2b trial in TRD: Generalised Anxiety Disorder-7 item scale (GAD-7); settings: 25 mg vs 1 mg group, week 3
# Procedure: as §1
# adult subjects with TRD [3] = assay: Phase 2b trial in TRD: participants starting new treatment for depression
# Procedure: All subjects were asked to remain off their antidepressant medications for at least 3 weeks following the psilocybin session until the primary endpoint assessment, or longer. Rescue medications were allowed and described in the Rescue Medications section below. Subjects who restarted their antidepressant medications during the first 3 weeks after the psilocybin treatment administration were assessed for reasons of resuming their medications and followed until 12 weeks post-psilocybin administration.
# adult subjects with TRD [4] = assay: Phase 2b trial in TRD: Sheehan Disability Scale (SDS); settings: 25 mg vs 1 mg, week 3
# Procedure: as §1
structure (smiles),measurement,setting,value
"CN(C)CCc1c[nH]c2cccc(OP(=O)(O)O)c12 [COMP360, psilocybin]","PANAS negative affect, least squares mean (95% confidence intervals) treatment difference",adult subjects with TRD [1],"−3.18 (−5.59, −0.77)"
same,"PANAS positive affect, least squares mean (95% confidence intervals) treatment difference",adult subjects with TRD [1],"6.17 (3.53, 8.82)"
same,"GAD-7 total score, least squares mean (95% confidence intervals) treatment difference",adult subjects with TRD [2],"−1.79 (−3.35, −0.23)"
same,Participants started new treatment for depression,"adult subjects with TRD [3]; 1 mg (N = 79), Day 2",0 n
same,Participants started new treatment for depression,"adult subjects with TRD [3]; 10 mg (N = 75), Day 2",0 n
same,Participants started new treatment for depression,"adult subjects with TRD [3]; 25 mg (N = 79), Day 2",0 n
same,Participants started new treatment for depression,"adult subjects with TRD [3]; 25 mg (N = 79), Week 1",0 n
same,Participants started new treatment for depression,"adult subjects with TRD [3]; Overall (N = 233), Day 2",0 n
same,SDS treatment difference,adult subjects with TRD [4],−6.49

# Reference: patent US20250000881A1, “TREATMENT OF TREATMENT RESISTANT […] PSILOCYBIN” (COMPASS […], priority 2021, published 2025)
